How the values were obtained:
[1] = system: liver, heart, spleen, lung, and kidney tissues; test: HE staining safety evaluation of mouse tissues; format: in vivo; details: kidney of mice, in words
[2] = system: CUMS depression model mice; test: Sucrose preference test in CUMS depression model mice; format: in vivo, C57BL/6J mice
From the text: (§1) After one week of adaptive feeding, the newly purchased mice were divided into a blank group and CUMS model group. The mice in the blank group were not subjected to behavioral intervention and were fed normally. Mice in the model group were given 1-2 unpredictable behavioral stimuli every day. […] When the same stimulation is continuous, the stimulation method is changed to ensure that the same stimulation is not continuous, and the model construction period is 42 days.

[3] = system: Nrf2, HO-1, BDNF, and TrkB in the hippocampus; test: Western blot of hippocampal proteins in CUMS depression model mice; format: in vivo; details: low dose, in words
PC12 cells [4] = test: MTT toxicity (safety evaluation) on PC12 nerve cells; format: cell-based
Procedure: The toxicity of each drug to PC12 cells was determined by MTT assay. The principle of the MTT colorimetric method: there is succinate dehydrogenase in the mitochondria of living cells, which can make exogenous MTT become blue-purple crystal formazan insoluble in water, this phenomenon cannot be observed in dead cells. The blue-purple crystal formazan can be dissolved by DMSO, and the absorbance value is measured by a microplate reader at a wavelength of 490 nm, which in turn reflects the number of living cells. […] The operation method is as follows:
The cells were resuscitated with DMEM high glucose medium containing 10% fetal bovine serum and cultured in a 5% CO2 cell incubator at 37° C., when the cells grew to the logarithmic growth phase, they were inoculated into a 96-well plate and cultured for 24 hours, each well was added with 100 μL of each compound solution at the corresponding gradient concentration (60, 30, 15, 7.5, 3.75 μM), after incubation in the incubator for 24 h or 48 h, 20 μL of MTT was added to continue incubation for 4 h, the supernatant was discarded and 150 μL of DMSO was added to dissolve the blue-purple crystals, after shaking for 10 min, the cell viability was detected by a microplate reader, and classified according to the cytotoxicity standard. The relevant calculation formula is as follows: […]

[5] = system: CUMS depression model mice; test: Forced swimming test in CUMS depression model mice; format: in vivo, C57BL/6J mice; details: for forced swimming test, depressive symptoms / immobility time: 14th day, in words; for immobility time in the forced swimming test: 28 days
From the text: as §1

PC12 cells [6] = test: Inhibition of corticosterone (CORT)-induced PC12 cell damage; format: cell-based, rat; details: 24 h
PC12 cells [7] = test: Inhibition of H2O2-induced oxidative damage in PC12 cells; format: cell-based, rat
Procedure: After 24 hours of incubation in the incubator, the relative proliferation rates of the cells were calculated according to the method under Section 2.1.

COc1cc(/C=C2\CNC/C(=C\c3cc(Cl)c(O)c(OC)c3)C2=O)cc(Cl)c1O [CAK06, 3,5-bis ((E)-3-chloro-4-hydroxy-5-methoxybenzylidene) piperidin-4-one]
HE staining pathology of tissues [1]: basically normal | sucrose preference rate ([2]; 10 mg/kg oral once a day, 14th day, in words): failed to significantly increase the sucrose preference rate | sucrose preference rate ([2]; 10 mg/kg oral once a day, 28 days, model 61.36±2.18%): 70.62±2.33% | sucrose preference rate ([2]; 20 mg/kg oral once a day, 14th day, in words): significant increase | sucrose preference rate ([2]; 20 mg/kg oral once a day, 28 days, model 61.36±2.18%): 77.42±2.77% | expression of antioxidant-related proteins Nrf2 and HO-1 [3]: better expression than the Flu group | cytotoxicity to PC12 cells (PC12 cells [4]; 3.75-60 μM, 24 h and 48 h, in words): no significant cytotoxicity | Rank (cytotoxicity standard) 24 h (PC12 cells [4]; PC12, 3.75 μM): 0 | Relative growth rate (%) 24 h (PC12 cells [4]; PC12, 3.75 μM): 98.50 ± 3.77% | Rank (cytotoxicity standard) 48 h (PC12 cells [4]; PC12, 3.75 μM): 0 | Relative growth rate (%) 48 h (PC12 cells [4]; PC12, 3.75 μM): 100.05 ± 0.75% | Rank (cytotoxicity standard) 24 h (PC12 cells [4]; PC12, 7.5 μM): 0 | Relative growth rate (%) 24 h (PC12 cells [4]; PC12, 7.5 μM): 100.42 ± 2.85% | Rank (cytotoxicity standard) 48 h (PC12 cells [4]; PC12, 7.5 μM): 1 | Relative growth rate (%) 48 h (PC12 cells [4]; PC12, 7.5 μM): 92.97 ± 2.54% | Rank (cytotoxicity standard) 24 h (PC12 cells [4]; PC12, 15 μM): 1 | Relative growth rate (%) 24 h (PC12 cells [4]; PC12, 15 μM): 98.55 ± 4.12% | Rank (cytotoxicity standard) 48 h (PC12 cells [4]; PC12, 15 μM): 1 | Relative growth rate (%) 48 h (PC12 cells [4]; PC12, 15 μM): 88.82 ± 0.28% | Rank (cytotoxicity standard) 24 h (PC12 cells [4]; PC12, 30 μM): 1 | Relative growth rate (%) 24 h (PC12 cells [4]; PC12, 30 μM): 94.56 ± 2.82% | Rank (cytotoxicity standard) 48 h (PC12 cells [4]; PC12, 30 μM): 1 | Relative growth rate (%) 48 h (PC12 cells [4]; PC12, 30 μM): 93.60 ± 4.14% | Rank (cytotoxicity standard) 24 h (PC12 cells [4]; PC12, 60 μM): 0 | Relative growth rate (%) 24 h (PC12 cells [4]; PC12, 60 μM): 114.78 ± 1.81% | Rank (cytotoxicity standard) 48 h (PC12 cells [4]; PC12, 60 μM): 0 | Relative growth rate (%) 48 h (PC12 cells [4]; PC12, 60 μM): 109.26 ± 4.07% | forced swimming test, depressive symptoms / immobility time ([5]; 10 mg/kg oral once a day): significant reduction in immobility time | immobility time in the forced swimming test ([5]; 10 mg/kg oral once a day): 114.86 ± 84.07 s | forced swimming test, depressive symptoms / immobility time ([5]; 20 mg/kg oral once a day): stronger antidepressant effect | immobility time in the forced swimming test ([5]; 20 mg/kg oral once a day): 54.44 ± 53.38 s | relative cell proliferation rate (PC12 cells [6]; 60 μM drug with 514.6 μM CORT): 66.95±0.97% | effect on viability of CORT-damaged PC12 cells (PC12 cells [6]; 3.75-60 μM drug with 514.6 μM CORT, in words): time-dependent and concentration-dependent cell protection | cell proliferation rate (PC12 cells [7]; 60 μM drug with 585.8 μM H2O2, 24 h): 73.91±0.69% | effect on survival of H2O2-damaged PC12 cells (PC12 cells [7]; 3.75-60 μM drug, 24 h, in words): time-dependent and concentration-dependent cell protection

From patent US20250289786A1, “CHLORINATED MONOCARBONYL CURCUMIN COMPOUNDS, PREPARATION METHOD, AND APPLICATION” (Southwest Medical University, priority 2024, published 2025)
